Target: hENPP2 (Homo sapiens, UniProt Q13822)
Test: Human ENPP2 (hENPP2) biochemical assay using LPC as substrate
Conditions: 150 µM LPC (palmitoyl 16:0), 37°C for 30 min
Method: The principle of the assay conswasts in quantifying the released choline with an enzymatic method using choline oxidase and peroxidase. Choline oxydation by choline oxydase releases betaine and peroxide. The latter was quantified in presence of HRP that converts the peroxide detection agent TOOS (CAS# 82692-93-1) and 4-aminoantipyrine into quinoneimine dye. The appearance of quinoneimine dye was measured spectrophotometrically at 555 nm and was proportional to the amount of choline released by ENPP2. Inhibition of ENPP2 results in a decrease of the signal.
Compound IC50 values were determined in a hENPP2 (UniProtKB/SwwassProt Sequence ref Q13822) biochemical assay using LPC as substrate.
5 µL of a dilution series of compound, starting from 50 µM highest concentration, 1/3 dilution, was added to the wells. hENPP2 was used at a final concentration of 1 µg/mL or 3 µg/mL (it will be appreciated by the skilled person that the potency read out was independent of the enzyme concentration). The enzyme was diluted in 50 mM Trwas-HCl pH 8.5, 500 mM NaCl, 5 mM KCl, 10 mM CaCl2, 0.1% fatty acid free BSA in a total volume of 10 µL. The reaction was started by the addition of 10 µL of 150 µM LPC (palmitoyl 16:0; Avanti Polar Lipids, Inc., Cat# 855675) diluted in the same buffer as described above and the mixture was incubated at 37°C for 30 min. The reaction was terminated and choline quantified by the addition of a 25 µL of a mixture containing 0.6 U/mL of choline oxidase, 0.6 U/mL of peroxydase, 1.8 mM TOOS, 1.2 mM amino-antipyrine, 20 mM EGTA (stop-developer solution) diluted in the buffer described above. […] was read on an Envision plate reader (PerkinElmer, Inc.) after an incubation of 30 min at room temperature (excitation 555 nm).

Row | Compound | IC50
1 | Cc1cc(C)cc(Nc2ncc3c(n2)CN(C2CCN(C(=O)c4cc5nn[nH]c5cc4F)C(C)(C)C2)C3)c1 (centres unmarked) [Cpd 117, [4-[2-(3,5-dimethylanilino)-5,7-dihydropyrrolo[3,4-d]pyrimidin-6-yl]-2,2-dimethyl-1-piperidyl]-(6-fluoro-1H-benzotriazol-5-yl)methanone] | 0.01 to 100 nM
2 | Cc1cc(C)cc(Nc2ncc3c(n2)CN(C2CCN(C(=O)c4ccc5oc(=O)[nH]c5c4)CC2)C3)c1 [Cpd 118, 5-[4-[2-(3,5-dimethylanilino)-5,7-dihydropyrrolo[3,4-d]pyrimidin-6-yl]piperidine-1-carbonyl]-3H-1,3-benzoxazol-2-one] | > 1000 nM
3 | Cc1cc(C)cc(Nc2ncc3c(n2)CN([C@H]2CCN(C(=O)c4ccc(S(N)(=O)=O)cc4)[C@@H](C)C2)C3)c1 [Cpd 124, 4-[(2S,4S)-4-[2-(3,5-dimethylanilino)-5,7-dihydropyrrolo[3,4-d]pyrimidin-6-yl]-2-methyl-piperidine-1-carbonyl]benzenesulfonamide] | > 1000 nM
4 | Cc1cc(C)cc(Nc2ncc3c(n2)CN([C@H]2CCN(C(=O)c4ccc(S(=O)(=O)NC(=O)C(C)C)cc4)[C@@H](C)C2)C3)c1 [Cpd 131, N-[4-[(2S,4S)-4-[2-(3,5-dimethylanilino)-5,7-dihydropyrrolo[3,4-d]pyrimidin-6-yl]-2-methyl-piperidine-1-carbonyl]phenyl]sulfonyl-2-methyl-propanamide] | > 1000 nM
5 | Cc1cc(C)cc(Nc2ncc3c(n2)CN([C@H]2CCN(C(=O)c4ccc(C(=O)O)cc4)[C@@H](C)C2)C3)c1 [Cpd 132, 4-[(2S,4S)-4-[2-(3,5-dimethylanilino)-5,7-dihydropyrrolo[3,4-d]pyrimidin-6-yl]-2-methyl-piperidine-1-carbonyl]benzoic acid] | > 1000 nM
6 | Cc1cc(C)cc(Nc2ncc3c(n2)CN([C@H]2CCN(C(=O)c4ccc(C(=O)NS(C)(=O)=O)cc4)[C@@H](C)C2)C3)c1 [Cpd 133, 4-[(2S,4S)-4-[2-(3,5-dimethylanilino)-5,7-dihydropyrrolo[3,4-d]pyrimidin-6-yl]-2-methyl-piperidine-1-carbonyl]-N-methylsulfonylbenzamide] | > 1000 nM
7 | Cc1cc(C)cc(Nc2ncc3c(n2)CN([C@@H]2CCN(C(=O)c4cccc(C(=O)O)c4)[C@H](C)C2)C3)c1 [Cpd 146, 3-[(2R,4R)-4-[2-(3,5-dimethylanilino)-5,7-dihydropyrrolo[3,4-d]pyrimidin-6-yl]-2-methyl-piperidine-1-carbonyl]benzoic acid] | > 1000 nM
8 | Cc1cc(C)cc(Nc2ncc3c(n2)CN([C@@H]2CCN(C(=O)c4ccc(-c5nnn[nH]5)cc4)[C@H](C)C2)C3)c1 [Cpd 153, [(2R,4R)-4-[2-(3,5-dimethylanilino)-5,7-dihydropyrrolo[3,4-d]pyrimidin-6-yl]-2-methyl-1-piperidyl]-[4-(1H-tetrazol-5-yl)phenyl]methanone] | > 1000 nM
9 | C[C@@H]1C[C@H](N2Cc3cnc(Nc4ccc(C#N)cc4)nc3C2)CCN1C(=O)c1ccc2[nH]nnc2c1 [Cpd 160, 4-[[6-[(2R,4R)-1-(1H-benzotriazole-5-carbonyl)-2-methyl-4-piperidyl]-5,7-dihydropyrrolo[3,4-d]pyrimidin-2-yl]amino]benzonitrile] | 0.01 to 100 nM
10 | O=C(c1ccc2[nH]c(=O)oc2c1)N1CC(N2Cc3cnc(Nc4cc(C(F)(F)F)cc(C(F)(F)F)c4)nc3C2)C1 [compound 6, 6-[3-[2-[3,5-bis(trifluoromethyl)anilino]-5,7-dihydropyrrolo[3,4-d]pyrimidin-6-yl]azetidine-1-carbonyl]-3H-1,3-benzoxazol-2-one] | 0.01 to 100 nM
11 | O=C(c1ccc2[nH]c(=O)oc2c1)N1CC(N2CCc3nc(Nc4cc(C(F)(F)F)cc(C(F)(F)F)c4)ncc3C2)C1 [compound 8, 6-[3-[2-[3,5-bis(trifluoromethyl)anilino]-7,8-dihydro-5H-pyrido[4,3-d]pyrimidin-6-yl]azetidine-1-carbonyl]-3H-1,3-benzoxazol-2-one] | 0.01 to 100 nM

The remaining lines, values ahead:

Row | IC50 | Compound
12 | 100 to 500 nM | Cc1cc(C)cc(Nc2ncc3c(n2)CN(C2CN(C(=O)c4ccc5[nH]nnc5c4)CC2(F)F)C3)c1 (centres unmarked) [Cpd 101, 1H-benzotriazol-5-yl-[4-[2-(3,5-dimethylanilino)-5,7-dihydropyrrolo[3,4-d]pyrimidin-6-yl]-3,3-difluoro-pyrrolidin-1-yl]methanone]
13 | 0.01 to 100 nM | COC(=O)[C@@H]1C[C@H](N2Cc3cnc(Nc4cc(C)cc(C)c4)nc3C2)CCN1C(=O)c1ccc2[nH]nnc2c1 [Cpd 104, methyl (2S,4R)-1-(1H-benzotriazole-5-carbonyl)-4-[2-(3,5-dimethylanilino)-5,7-dihydropyrrolo[3,4-d]pyrimidin-6-yl]pipe ridine-2-carboxylate]
14 | 500 to 1000 nM | Cc1cc(C)cc(Nc2ncc3c(n2)CN(C2CCN(C(=O)c4ccc5[nH]cnc5c4)CC2)C3)c1 [Cpd 108, 1H-benzimidazol-5-yl-[4-[2-(3,5-dimethylanilino)-5,7-dihydropyrrolo[3,4-d]pyrimidin-6-yl]-1-piperidyl]methanone]
15 | 0.01 to 100 nM | COc1cc(C)cc(Nc2ncc3c(n2)CN([C@@H]2CCN(C(=O)c4ccc5[nH]nnc5c4)[C@H](C)C2)C3)c1 [Cpd 125, 1H-benzotriazol-5-yl-[(2R,4R)-4-[2-(3-methoxy-5-methyl-anilino)-5,7-dihydropyrrolo[3,4-d]pyrimidin-6-yl]-2-methyl-1-piperidyl]methanone]
16 | 0.01 to 100 nM | Cc1cc(C)cc(Nc2ncc3c(n2)CN(C2(C)CCN(C(=O)c4ccc5[nH]nnc5c4)CC2)C3)c1 [Cpd 130, 1H-benzotriazol-5-yl-[4-[2-(3,5-dimethylanilino)-5,7-dihydropyrrolo[3,4-d]pyrimidin-6-yl]-4-methyl-1-piperidyl]methanone]
17 | 100 to 500 nM | Cc1cc(C)cc(Nc2ncc3c(n2)CCN(C2CCN(C(=O)c4ccc5[nH]nnc5c4)[C@@H](C)C2)CC3)c1 (stereo partly drawn) [Cpd 142, 1H-benzotriazol-5-yl-[(2S)-4-[2-(3,5-dimethylanilino)-5,6,8,9-tetrahydropyrimido[4,5-d]azepin-7-yl]-2-methyl-1-piperidyl]methanone]
18 | 0.01 to 100 nM | Cc1cc(C)cc(Nc2ncc3c(n2)CCN(C2(C)CCN(C(=O)c4ccc5[nH]nnc5c4)CC2)C3)c1 [Cpd 158, 1H-benzotriazol-5-yl-[4-[2-(3,5-dimethylanilino)-7,8-dihydro-5H-pyrido[4,3-d]pyrimidin-6-yl]-4-methyl-1-piperidyl]methanone]
19 | 100 to 500 nM | Cc1cc(C)cc(Nc2ncc3c(n2)CCN(C2CN(C(=O)c4ccc5[nH]nnc5c4)C2)C3)c1 [compound 2, 1H-benzotriazol-5-yl-[3-[2-(3,5-dimethylanilino)-7,8-dihydro-5H-pyrido[4,3-d]pyrimidin-6-yl]azetidin-1-yl]methanone]
20 | 0.01 to 100 nM | Cc1cc(C)cc(Nc2ncc3c(n2)CCN(C2CCN(C(=O)c4ccc5[nH]c(=O)oc5c4)C2)C3)c1 (centres unmarked) [compound 4, 6-[3-[2-(3,5-dimethylanilino)-7,8-dihydro-5H-pyrido[4,3-d]pyrimidin-6-yl]pyrrolidine-1-carbonyl]-3H-1,3-benzoxazol-2-one]
21 | 100 to 500 nM | Cc1cc(C)cc(Nc2ncc3c(n2)CCN(C2CCN(C(=O)c4ccc5[nH]nnc5c4)C2)C3)c1 (centres unmarked) [compound 5, 1H-benzotriazol-5-yl-[3-[2-(3,5-dimethylanilino)-7,8-dihydro-5H-pyrido[4,3-d]pyrimidin-6-yl]pyrrolidin-1-yl]methanone]
22 | 100 to 500 nM | Cc1cc(C)cc(Nc2ncc3c(n2)CCN(C2CCN(C(=O)c4ccc5[nH]c(=O)oc5c4)CC2)C3)c1 [compound 7, 6-[4-[2-(3,5-dimethylanilino)-7,8-dihydro-5H-pyrido[4,3-d]pyrimidin-6-yl]piperidine-1-carbonyl]-3H-1,3-benzoxazol-2-one]
23 | 0.01 to 100 nM | O=C(c1ccc2[nH]nnc2c1)N1CC(N2Cc3cnc(Nc4cc(C(F)(F)F)cc(C(F)(F)F)c4)nc3C2)C1 [compound 9, 1H-benzotriazol-5-yl-[3-[2-[3,5-bis(trifluoromethyl)anilino]-5,7-dihydropyrrolo[3,4-d]pyrimidin-6-yl]azetidin-1-yl]methanone]
24 | 0.01 to 100 nM | Cc1cc(C)cc(Nc2ncc3c(n2)CN(C2CCN(C(=O)c4ccc5[nH]nnc5c4)CC2)C3)c1 [compound 10, 1H-benzotriazol-5-yl-[4-[2-(3,5-dimethylanilino)-5,7-dihydropyrrolo[3,4-d]pyrimidin-6-yl]-1-piperidyl]methanone]
25 | 0.01 to 100 nM | Cc1cc(C)cc(Nc2ncc3c(n2)CN(C2CCN(C(=O)c4ccc5[nH]c(=O)oc5c4)CC2)C3)c1 [compound 11, 6-[4-[2-(3,5-dimethylanilino)-5,7-dihydropyrrolo[3,4-d]pyrimidin-6-yl]piperidine-1-carbonyl]-3H-1,3-benzoxazol-2-one]
26 | 0.01 to 100 nM | Cc1cc(C)cc(Nc2ncc3c(n2)CN(C2CCN(C(=O)c4ccc5[nH]c(=O)oc5c4)C2)C3)c1 (centres unmarked) [compound 12, 6-[3-[2-(3,5-dimethylanilino)-5,7-dihydropyrrolo[3,4-d]pyrimidin-6-yl]pyrrolidine-1-carbonyl]-3H-1,3-benzoxazol-2-one]
